Data: patent publication US7390806B2, “Antibiotics containing borinic acid complexes and methods of use” (Anacor Pharmaceuticals, Inc., priority 2002, dated 2008)

System: E. faecalis ATCC 29212
Experiment: MIC determination, E. faecalis ATCC 29212
Type: cell-based, Enterococcus faecalis
Details: Table 1

Row | Structure (SMILES) | MIC E. faecalis ATCC 29212 [micrograms per ml]
1 | Oc1cccc2cccnc12 [Compound 27, 8-hydroxyquinoline] | 8
2 | Oc1cccc2cccnc12 [Compound 86, 8-hydroxyquinoline] | 8
3 | Oc1cccc2cccnc12 [Compound 69, 8-hydroxyquinoline] | 64
4 | Oc1cccc2cccnc12 [Compound 74, 8-hydroxyquinoline] | 32
5 | Oc1cccc2cccnc12 [Compound 39, 8-hydroxyquinoline] | 8
6 | Oc1cccc2cccnc12 [Compound 92, 8-hydroxyquinoline] | 8
7 | Oc1cccc2cccnc12 [Compound 87, 8-hydroxyquinoline] | 8
8 | Oc1cccc2cccnc12 [Compound 83, 8-hydroxyquinoline] | 4
9 | Oc1cccc2cccnc12 [Compound 59, 8-hydroxyquinoline] | 8
10 | Oc1cccc2cccnc12 [Compound 99, 8-hydroxyquinoline] | 8

System: M. catarrhalis ATCC 25238
Experiment: MIC determination, M. catarrhalis ATCC 25238
Type: cell-based
Details: Table 1

Row | Structure (SMILES) | MIC M. catarrhalis ATCC 25238 [micrograms per ml]
11 | Oc1cccc2cccnc12 [Compound 27, 8-hydroxyquinoline] | 1
12 | Oc1cccc2cccnc12 [Compound 86, 8-hydroxyquinoline] | 2
13 | Oc1cccc2cccnc12 [Compound 69, 8-hydroxyquinoline] | 1
14 | Oc1cccc2cccnc12 [Compound 74, 8-hydroxyquinoline] | 1
15 | Oc1cccc2cccnc12 [Compound 39, 8-hydroxyquinoline] | 2
16 | Oc1cccc2cccnc12 [Compound 92, 8-hydroxyquinoline] | 1
17 | Oc1cccc2cccnc12 [Compound 87, 8-hydroxyquinoline] | 1
18 | Oc1cccc2cccnc12 [Compound 83, 8-hydroxyquinoline] | 2
19 | Oc1cccc2cccnc12 [Compound 59, 8-hydroxyquinoline] | 2
20 | Oc1cccc2cccnc12 [Compound 99, 8-hydroxyquinoline] | 1

System: S. pneumoniae ATCC 6301
Experiment: MIC determination, S. pneumoniae ATCC 6301
Type: cell-based, Streptococcus pneumoniae
Details: Table 1

Row | Structure (SMILES) | MIC S. pneumoniae ATCC 6301 [micrograms per ml]
21 | Oc1cccc2cccnc12 [Compound 27, 8-hydroxyquinoline] | 1
22 | Oc1cccc2cccnc12 [Compound 86, 8-hydroxyquinoline] | 2
23 | Oc1cccc2cccnc12 [Compound 69, 8-hydroxyquinoline] | 2
24 | Oc1cccc2cccnc12 [Compound 74, 8-hydroxyquinoline] | 2
25 | Oc1cccc2cccnc12 [Compound 39, 8-hydroxyquinoline] | 1
26 | Oc1cccc2cccnc12 [Compound 92, 8-hydroxyquinoline] | 2
27 | Oc1cccc2cccnc12 [Compound 87, 8-hydroxyquinoline] | 2
28 | Oc1cccc2cccnc12 [Compound 83, 8-hydroxyquinoline] | 2
29 | Oc1cccc2cccnc12 [Compound 59, 8-hydroxyquinoline] | 1
30 | Oc1cccc2cccnc12 [Compound 99, 8-hydroxyquinoline] | 2

System: E. faecium CT-26
Experiment: MIC determination, E. faecium CT-26
Type: cell-based, Enterococcus faecium
Details: Table 1

Row | Structure (SMILES) | MIC E. faecium CT-26 [micrograms per ml]
31 | Oc1cccc2cccnc12 [Compound 27, 8-hydroxyquinoline] | 2
32 | Oc1cccc2cccnc12 [Compound 86, 8-hydroxyquinoline] | 4
33 | Oc1cccc2cccnc12 [Compound 69, 8-hydroxyquinoline] | 4
34 | Oc1cccc2cccnc12 [Compound 74, 8-hydroxyquinoline] | 2
35 | Oc1cccc2cccnc12 [Compound 39, 8-hydroxyquinoline] | 2
36 | Oc1cccc2cccnc12 [Compound 92, 8-hydroxyquinoline] | 4
37 | Oc1cccc2cccnc12 [Compound 87, 8-hydroxyquinoline] | 4
38 | Oc1cccc2cccnc12 [Compound 83, 8-hydroxyquinoline] | 4
39 | Oc1cccc2cccnc12 [Compound 59, 8-hydroxyquinoline] | 4
40 | Oc1cccc2cccnc12 [Compound 99, 8-hydroxyquinoline] | 2

System: S. aureus ATCC 29213
Experiment: MIC determination, S. aureus ATCC 29213
Type: cell-based, Staphylococcus aureus
Details: Table 1

Row | Structure (SMILES) | MIC S. aureus ATCC 29213 [micrograms per ml]
41 | Oc1cccc2cccnc12 [Compound 27, 8-hydroxyquinoline] | 0.5
42 | Oc1cccc2cccnc12 [Compound 86, 8-hydroxyquinoline] | 2
43 | Oc1cccc2cccnc12 [Compound 69, 8-hydroxyquinoline] | 2
44 | Oc1cccc2cccnc12 [Compound 74, 8-hydroxyquinoline] | 2
45 | Oc1cccc2cccnc12 [Compound 39, 8-hydroxyquinoline] | 1
46 | Oc1cccc2cccnc12 [Compound 92, 8-hydroxyquinoline] | 2
47 | Oc1cccc2cccnc12 [Compound 87, 8-hydroxyquinoline] | 2
48 | Oc1cccc2cccnc12 [Compound 83, 8-hydroxyquinoline] | 2
49 | Oc1cccc2cccnc12 [Compound 59, 8-hydroxyquinoline] | 2
50 | Oc1cccc2cccnc12 [Compound 99, 8-hydroxyquinoline] | 2

System: S. epidermidis ATCC 12228
Experiment: MIC determination, S. epidermidis ATCC 12228
Type: cell-based, Staphylococcus epidermidis
Details: Table 1

Row | Structure (SMILES) | MIC S. epidermidis ATCC 12228 [micrograms per ml]
51 | Oc1cccc2cccnc12 [Compound 27, 8-hydroxyquinoline] | 1
52 | Oc1cccc2cccnc12 [Compound 86, 8-hydroxyquinoline] | 1
53 | Oc1cccc2cccnc12 [Compound 69, 8-hydroxyquinoline] | 1
54 | Oc1cccc2cccnc12 [Compound 74, 8-hydroxyquinoline] | 1
55 | Oc1cccc2cccnc12 [Compound 39, 8-hydroxyquinoline] | 1
56 | Oc1cccc2cccnc12 [Compound 92, 8-hydroxyquinoline] | 1
57 | Oc1cccc2cccnc12 [Compound 87, 8-hydroxyquinoline] | 1
58 | Oc1cccc2cccnc12 [Compound 83, 8-hydroxyquinoline] | 1
59 | Oc1cccc2cccnc12 [Compound 59, 8-hydroxyquinoline] | 1
60 | Oc1cccc2cccnc12 [Compound 99, 8-hydroxyquinoline] | 1
